Test results: patent US20170239237A1, “PYRROLOQUINOLINE DERIVATIVES AS 5-HT6 ANTAGONISTS, PREPARATION METHOD AND USE THEREOF” (Uniwersytet Jagiellonski, priority 2013, published 2017)
Where two headings read alike, the source gives them in different places.

Columns and labels:
dopamine D2L receptor = dopamine D2L receptor (Homo sapiens, UniProt P14416); experiment: Radioligand binding, D2 ([3H]-raclopride displacement)
5-HT1A receptor = target: T1, 5-HT1A receptor (Homo sapiens, UniProt P08908); experiment: Radioligand binding, 5-HT1A ([3H]-8-OH-DPAT displacement)
T1 sequence (P08908 1-422): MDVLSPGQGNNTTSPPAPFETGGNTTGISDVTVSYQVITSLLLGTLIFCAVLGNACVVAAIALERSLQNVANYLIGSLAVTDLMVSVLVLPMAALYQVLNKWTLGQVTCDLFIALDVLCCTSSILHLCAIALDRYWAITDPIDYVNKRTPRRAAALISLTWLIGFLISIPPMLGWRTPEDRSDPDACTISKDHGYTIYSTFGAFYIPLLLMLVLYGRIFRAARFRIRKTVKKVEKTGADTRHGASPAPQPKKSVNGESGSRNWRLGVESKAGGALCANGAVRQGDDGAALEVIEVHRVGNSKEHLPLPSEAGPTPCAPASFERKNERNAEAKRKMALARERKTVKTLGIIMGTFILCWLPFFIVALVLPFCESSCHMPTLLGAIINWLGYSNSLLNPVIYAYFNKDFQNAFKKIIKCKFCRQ

5-HT6 receptor [1] = target: T2, 5-HT6 receptor (Homo sapiens, UniProt P50406); experiment: Radioligand binding, 5-HT6 ([3H]-LSD displacement)
T2 sequence (P50406 whole entry): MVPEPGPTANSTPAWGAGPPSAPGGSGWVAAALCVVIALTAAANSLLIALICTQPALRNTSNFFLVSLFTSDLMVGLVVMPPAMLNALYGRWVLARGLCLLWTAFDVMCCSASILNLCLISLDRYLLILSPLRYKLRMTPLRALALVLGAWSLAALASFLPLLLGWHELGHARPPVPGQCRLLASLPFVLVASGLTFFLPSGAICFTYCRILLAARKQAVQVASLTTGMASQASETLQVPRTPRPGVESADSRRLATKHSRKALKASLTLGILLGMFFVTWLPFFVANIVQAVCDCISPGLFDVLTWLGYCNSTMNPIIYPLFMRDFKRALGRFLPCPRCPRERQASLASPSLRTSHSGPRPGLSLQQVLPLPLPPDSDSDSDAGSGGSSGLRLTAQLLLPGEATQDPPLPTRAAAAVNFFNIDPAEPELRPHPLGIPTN

5-HT7 receptor = 5-HT7 receptor (Homo sapiens, UniProt P34969); experiment: Radioligand binding, 5-HT7 ([3H]-5-CT displacement)
Chain of 5-HT7 receptor (P34969 1-432 limits assumed): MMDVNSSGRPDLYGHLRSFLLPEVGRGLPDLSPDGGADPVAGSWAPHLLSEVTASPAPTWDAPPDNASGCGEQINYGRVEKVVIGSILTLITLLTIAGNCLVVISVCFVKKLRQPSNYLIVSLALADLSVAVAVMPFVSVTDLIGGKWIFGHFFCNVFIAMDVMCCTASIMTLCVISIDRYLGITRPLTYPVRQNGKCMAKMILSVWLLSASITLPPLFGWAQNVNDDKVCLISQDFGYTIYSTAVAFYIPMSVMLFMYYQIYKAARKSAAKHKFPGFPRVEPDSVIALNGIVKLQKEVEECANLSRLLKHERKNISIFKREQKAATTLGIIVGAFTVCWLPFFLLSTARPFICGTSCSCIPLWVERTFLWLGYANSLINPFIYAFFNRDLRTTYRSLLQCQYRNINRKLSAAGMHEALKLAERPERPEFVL

5-HT6 receptor [2] = target: T2, 5-HT6 receptor; experiment: CHO-human-5HT6-Aequorin functional assay (ago-/antagonism); conditions: test concentration not given; for % inhibition of control agonist response: agonist effect, CHO-human-5HT6-Aequorin cells; for % inhibition of control antagonist response: antagonist effect vs 10^-6 M α-methylserotonin induced luminescence
[3] = read-out: Ki 5-HT6, cloned human receptor in HEK293, three independent experiments, SEM ± 22%

Chain of dopamine D2L receptor (P14416 whole entry): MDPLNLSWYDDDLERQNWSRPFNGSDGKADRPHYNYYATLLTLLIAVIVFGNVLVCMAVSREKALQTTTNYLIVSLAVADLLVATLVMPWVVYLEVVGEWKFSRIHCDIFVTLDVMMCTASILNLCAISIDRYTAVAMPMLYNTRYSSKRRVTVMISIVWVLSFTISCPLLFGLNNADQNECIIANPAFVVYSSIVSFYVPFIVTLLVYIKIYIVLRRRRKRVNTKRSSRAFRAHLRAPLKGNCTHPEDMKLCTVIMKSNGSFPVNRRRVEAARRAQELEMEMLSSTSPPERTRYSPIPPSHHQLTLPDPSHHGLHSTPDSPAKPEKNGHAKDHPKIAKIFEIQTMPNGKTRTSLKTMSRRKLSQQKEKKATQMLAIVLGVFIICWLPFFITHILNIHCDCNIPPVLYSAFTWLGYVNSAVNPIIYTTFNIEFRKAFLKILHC

Ki (dopamine D2L receptor) | Ki (5-HT1A receptor) | Ki (5-HT6 receptor [1]) | Ki (5-HT7 receptor) | % inhibition of control agonist response (5-HT6 receptor [2]) | % inhibition of control antagonist response (5-HT6 receptor [2]) | SMILES | Ki (5-HT6 receptor [1]; [3]) | Ki (dopamine D2L receptor; read-out: Ki D2, cloned human receptor in HEK293, three independent experiments, SEM ± 22%) | Ki (5-HT1A receptor; read-out: Ki 5-HT1A, cloned human receptor in HEK293, three independent experiments, SEM ± 22%) | Ki (5-HT7 receptor; read-out: Ki 5-HT7)
2260 nM | 1880 nM | 10 nM | 3970 nM |  |  | CN(C)CCNc1nc2ccccc2c2c1ccn2S(=O)(=O)c1ccccc1 [Compound 1, N1,N1-dimethyl-N2-(1-(phenylsulfonyl)-1H-pyrrolo[3,2-c]quinolin-4-yl)ethane-1,2-diamine] |  |  |  | 
900 nM | 3010 nM | 5 nM | 9590 nM | 9.6% | 80.8% | O=S(=O)(c1cccc(F)c1)n1ccc2c(NC3CCNC3)nc3ccccc3c21 (stereo not drawn) [Compound 8, 1-((3-fluorophenyl)sulfonyl)-N-(pyrrolidin-3-yl)-1H-pyrrolo[3,2-c]quinolin-4-amine] |  |  |  | 
664 nM | 5830 nM | 18 nM | 6880 nM | 4.8% | 51.8% | O=S(=O)(c1ccc(F)cc1)n1ccc2c(NC3CCNC3)nc3ccccc3c21 (stereo not drawn) [Compound 11, 1-((4-fluorophenyl)sulfonyl)-N-(pyrrolidin-3-yl)-1H-pyrrolo[3,2-c]quinolin-4-amine] |  |  |  | 
513 nM | 5190 nM | 6 nM | 4850 nM | 6.5% | 68.8% | COc1cccc(S(=O)(=O)n2ccc3c(NC4CCNC4)nc4ccccc4c32)c1 (stereo not drawn) [Compound 13, 1-((3-methoxyphenyl)sulfonyl)-N-(pyrrolidin-3-yl)-1H-pyrrolo[3,2-c]quinolin-4-amine] |  |  |  | 
1280 nM |  | 7 nM | 3820 nM | 10.8% | 88.8% | O=S(=O)(c1cccc(C(F)(F)F)c1)n1ccc2c(NC3CCNC3)nc3ccccc3c21 (stereo not drawn) [Compound 14, 1-((3-(trifluoromethyl)phenyl)sulfonyl)-N-(pyrrolidin-3-yl)-1H-pyrrolo[3,2-c]quinolin-4-amine] |  |  |  | 
2260 nM | 5330 nM | 19 nM | 1420 nM | 10.6% | 60.0% | O=S(=O)(c1cccc2ccccc12)n1ccc2c(NC3CCNC3)nc3ccccc3c21 (stereo not drawn) [Compound 21, 1-(naphthalen-1-ylsulfonyl)-N-(pyrrolidin-3-yl)-1H-pyrrolo[3,2-c]quinolin-4-amine] |  |  |  | 
6400 nM | 15200 nM | 4 nM | 18500 nM | 16.4% | 70.2% | O=S(=O)(c1cccc2cccnc12)n1ccc2c(NC3CCNC3)nc3ccccc3c21 (stereo not drawn) [Compound 22, 1-(quinolin-8-ylsulfonyl)-N-(pyrrolidin-3-yl)-1H-pyrrolo[3,2-c]quinolin-4-amine] |  |  |  | 
1550 nM | 19100 nM | 94 nM | 1310 nM |  |  | Cc1ccc2sc(S(=O)(=O)n3ccc4c(NC5CCNC5)nc5ccccc5c43)cc2c1 (stereo not drawn) [Compound 23, 1-((5-methylbenzo[b]thiophen-2-yl)sulfonyl)-N-(pyrrolidin-3-yl)-1H-pyrrolo[3,2-c]quinolin-4-amine] |  |  |  | 
4690 nM | 218 nM | 14 nM | 2390 nM | 7.0% | 61.3% | N#Cc1cccc(S(=O)(=O)n2ccc3c(N4CCNCC4)nc4ccccc4c32)c1 [Compound 38, 1-((3-cyanophenyl)sulfonyl)-4-(piperazin-1-yl)-1H-pyrrolo[3,2-c]quinoline] |  |  |  | 
 |  |  |  |  |  | Cc1cccc(S(=O)(=O)n2ccc3c(N4CCNCC4)nc4ccccc4c32)c1 [Compound 39, 1-((3-methylphenyl)sulfonyl)-4-(piperazin-1-yl)-1H-pyrrolo[3,2-c]quinoline] |  | 2160 nM | 760 nM | 4140 nM
342 nM | 127 nM |  | 3800 nM |  |  | CN1CCN(c2nc3ccccc3c3c2ccn3S(=O)(=O)c2ccccc2)CC1 [Compound 53, 1-(phenylsulfonyl)-4-(4-methylpiperazin-1-yl)-1H-pyrrolo[3,2-c]quinoline] |  |  |  | 
894 nM | 640 nM |  | 8250 nM |  |  | CN1CCN(c2nc3ccccc3c3c2ccn3S(=O)(=O)c2cccc(F)c2)CC1 [Compound 55, 1-((3-fluorophenyl)sulfonyl)-4-(4-methylpiperazin-1-yl)-1H-pyrrolo[3,2-c]quinoline] |  |  |  | 
 |  |  |  | 1.5% | 97.3% | CN1CCN(c2nc3ccccc3c3c2ccn3S(=O)(=O)c2ccc(N)cc2)CC1 [Compound 57, 1-((4-aminophenyl)sulfonyl)-4-(4-methylpiperazin-1-yl)-1H-pyrrolo[3,2-c]quinoline] |  |  |  | 
415 nM | 33000 nM | 220 nM | 2360 nM |  |  | O=S(=O)(c1ccccc1)n1ccc2c(N3CCN(Cc4ccccc4)CC3)nc3ccccc3c21 [Compound 60, 1-(phenylsulfonyl)-4-(4-benzylpiperazin-1-yl)-1H-pyrrolo[3,2-c]quinoline] |  |  |  | 
239 nM | 12800 nM | 93 nM | 16200 nM |  |  | O=S(=O)(c1ccc(Cl)s1)n1ccc2c(N3CCN(Cc4ccccc4)CC3)nc3ccccc3c21 [Compound 61, 1-((5-chlorothiophen-2-yl)sulfonyl)-4-(4-benzylpiperazin-1-yl)-1H-pyrrolo[3,2-c]quinoline] |  |  |  | 
1470 nM | 3520 nM | 66 nM | 5870 nM |  |  | O=S(=O)(c1cccc2cccnc12)n1ccc2c(N3CCN(Cc4ccccc4)CC3)nc3ccccc3c21 [Compound 62, 1-(quinolin-8-ylsulfonyl)-4-(4-benzylpiperazin-1-yl)-1H-pyrrolo[3,2-c]quinoline] |  |  |  | 
14500 nM |  | 361 nM | 22300 nM | 22.2% | 11.6% | O=S(=O)(c1cccc(Cl)c1)n1ccc2c(N3CCCCC3)nc3ccccc3c21 [Compound 76, 1-((3-chlorophenyl)sulfonyl)-4-(piperidin-1-yl)-1H-pyrrolo[3,2-c]quinoline] |  |  |  | 
5830 nM | 85400 nM | 188 nM | 27000 nM |  |  | O=S(=O)(c1cccc2cccnc12)n1ccc2c(N3CCCCC3)nc3ccccc3c21 [Compound 77, 1-(quinolin-8-ylsulfonyl)-4-(piperidin-1-yl)-1H-pyrrolo[3,2-c]quinoline] |  |  |  | 

SMILES | Ki (dopamine D2L receptor) | Ki (5-HT1A receptor) | Ki (5-HT6 receptor [1]) | Ki (5-HT7 receptor) | % inhibition of control agonist response (5-HT6 receptor [2]) | % inhibition of control antagonist response (5-HT6 receptor [2]) | Ki (5-HT6 receptor [1]; [3]) | Ki (dopamine D2L receptor; read-out: Ki D2, cloned human receptor in HEK293, three independent experiments, SEM ± 22%) | Ki (5-HT1A receptor; read-out: Ki 5-HT1A, cloned human receptor in HEK293, three independent experiments, SEM ± 22%) | Ki (5-HT7 receptor; read-out: Ki 5-HT7)
O=S(=O)(c1ccccc1Br)n1ccc2c(N3CCNCC3)nc3ccccc3c21 [Compound 28, 1-((2-bromophenyl)sulfonyl)-4-(piperazin-1-yl)-1H-pyrrolo[3,2-c]quinoline] | 7150 nM | 1220 nM | 3 nM | 7900 nM |  |  |  |  |  | 
O=S(=O)(c1ccc(F)cc1)n1ccc2c(N3CCNCC3)nc3ccccc3c21 [Compound 31, 1-((4-fluorophenyl)sulfonyl)-4-(piperazin-1-yl)-1H-pyrrolo[3,2-c]quinoline] | 5940 nM | 214 nM |  | 6400 nM |  |  | 18 nM |  |  | 
O=S(=O)(c1ccc(F)c(F)c1)n1ccc2c(N3CCNCC3)nc3ccccc3c21 [Compound 33, 1-((3,4-difluorophenyl)sulfonyl)-4-(piperazin-1-yl)-1H-pyrrolo[3,2-c]quinolinee] | 1780 nM | 311 nM |  | 5010 nM |  |  |  |  |  | 
O=S(=O)(c1ccc(C(F)(F)F)cc1)n1ccc2c(N3CCNCC3)nc3ccccc3c21 [Compound 36, 1-((4-(trifluoromethyl)phenyl)sulfonyl)-4-(piperazin-1-yl)-1H-pyrrolo[3,2-c]quinoline] | 13300 nM | 194 nM |  | 2260 nM |  |  | 34 nM |  |  | 
COc1cccc(S(=O)(=O)n2ccc3c(N4CCNCC4)nc4ccccc4c32)c1 [Compound 37, 1-((3-methoxyphenyl)sulfonyl)-4-(piperazin-1-yl)-1H-pyrrolo[3,2-c]quinoline] | 7040 nM | 372 nM |  | 5250 nM |  |  |  |  |  | 
CC(C)c1ccc(S(=O)(=O)n2ccc3c(N4CCNCC4)nc4ccccc4c32)cc1 [Compound 40, 1-((4-isopropylphenyl)sulfonyl)-4-(piperazin-1-yl)-1H-pyrrolo[3,2-c]quinoline] | 2540 nM | 148 nM |  | 3260 nM | −5.2% | 65.3% | 14 nM |  |  | 
CN1CCN(c2nc3ccccc3c3c2ccn3S(=O)(=O)c2cccc(Cl)c2)CC1 [Compound 54, 1-((3-chlorophenyl)sulfonyl)-4-(4-methylpiperazin-1-yl)-1H-pyrrolo[3,2-c]quinoline] | 1260 nM | 519 nM |  | 3490 nM |  |  |  |  |  | 
